These results are taken from PubChem BioAssay AID1996.

≈ marks a conversion by molar mass, not a printed value.

The conditions of the series: buffer; pH 7.4; 200.0 µM.
In the case of `Cc1cccc(OCCCC(=O)Nc2nccs2)c1C`, the solubility (kinetic) was 1.5 µg/mL (≈ 5.17 µM).

As for `COc1ccc(CN(C)C(=O)Cc2ccsc2)c(OC)c1OC`, the solubility (kinetic) came to 35.2 µg/mL (≈ 105 µM).

For `COc1ccc(C(=O)CNc2ccc3ccccc3c2)cc1`, the kinetic solubility amounted to 2.6 µg/mL (≈ 8.92 µM).

The molecule `CCOC(=O)c1c(-c2ccc(OC)cc2)cn2ccccc12` came in with a kinetic solubility of less than 0.6 µg/mL.

In turn, `CCC(Oc1ccccc1)C(=O)NC1CCCCCC1` (configuration not stated) showed a solubility (kinetic) of 28.3 µg/mL (≈ 103 µM).

In the case of `Cc1cc(=O)oc2cc(OCC(O)Cn3ccnc3)ccc12` (configuration not stated), the solubility (kinetic) was greater than 45 µg/mL.

In the case of `CS(=O)(=O)c1ccc(Cl)c(NC(=O)CCNC(=O)c2ccco2)c1`, the solubility (kinetic) worked out at 49.9 µg/mL (≈ 135 µM).

Take `O=C(O)[C@H]1Cc2ccccc2CN1S(=O)(=O)c1ccc(F)cc1`: the kinetic solubility was greater than 50.3 µg/mL.

With `CCOC(=O)Cn1cc(C(=O)C(C)(C)C)c2ccccc21`, the kinetic solubility was greater than 43.1 µg/mL.

As to `O=C(Nc1cccc(S(=O)(=O)N2CCCCC2)c1)c1cc(=O)[nH]c2ccccc12`, the kinetic solubility was 9.2 µg/mL (≈ 22.4 µM).

The molecule `CSc1ccc(C2N=C(c3ccccc3)NO2)cc1` (configuration not stated) displayed a kinetic solubility of 11.9 µg/mL (≈ 44 µM).

The molecule `O=C(NC1CCCCC1)N1CCN(c2ccc([N+](=O)[O-])cc2)CC1` gave a kinetic solubility of 12.7 µg/mL (≈ 38.2 µM).

In the case of `O=C(O)CCCC(=O)Nc1cc([N+](=O)[O-])ccc1O`, the kinetic solubility was 35.8 µg/mL (≈ 133 µM).

Molecule `CCOC(=O)c1ccccc1NC(=O)C1CCCO1` (configuration not stated) gave a kinetic solubility greater than 39.5 µg/mL.

As to `COc1ccc(NC(=S)NCCCN2CCOCC2)cc1`, the solubility (kinetic) was greater than 46.4 µg/mL.

Consider `O=C(COc1ccc2cc(Br)ccc2c1Br)N1CCOCC1`, for which the kinetic solubility came out at 13.9 µg/mL (≈ 32.4 µM).

For the molecule `COc1ccc(NC(=O)COC(=O)c2ccc3c(c2)OCO3)c(OC)c1`, the kinetic solubility turned out to be 1.9 µg/mL (≈ 5.29 µM).

`COc1ccc(S(=O)(=O)N2CCCCC2C)cc1` (configuration not stated) returned a solubility (kinetic) greater than 40.4 µg/mL.

In turn, `CCC1CCCCN1S(=O)(=O)c1ccccc1` (configuration not stated) came in with a kinetic solubility of 31.5 µg/mL (≈ 124 µM).

Regarding `Cc1cccnc1NC(=O)CNC(=O)c1ccccc1`, the kinetic solubility was greater than 40.4 µg/mL.

`CC(=O)NC(Cc1c[nH]c2ccccc12)C(=O)NCCc1ccccc1` (configuration not stated) gave a kinetic solubility greater than 52.4 µg/mL.

`Cc1ccc2cccc(OCC(=O)NCCC3=CCCCC3)c2n1`: the solubility (kinetic) stood at 46.5 µg/mL (≈ 143 µM).

Molecule `CSc1nc(Nc2ccc(Cl)cc2)c(C#N)c(=O)[nH]1` came in with a kinetic solubility of 7.8 µg/mL (≈ 26.6 µM).

Molecule `COC(=O)c1cc(CSc2nc3ccccc3c(=O)n2C)oc1C` returned a solubility (kinetic) of 4.4 µg/mL (≈ 12.8 µM).

In turn, `Cc1c(C)n2c3c(cccc13)CC2` displayed a kinetic solubility of 0.4 µg/mL (≈ 2.34 µM).

`Nc1nc(Cl)cc(Oc2ccc([N+](=O)[O-])cc2)n1`: the solubility (kinetic) is 1.5 µg/mL (≈ 5.63 µM).

In turn, `COc1ccc(C(=O)NCCc2ccccc2)cc1[N+](=O)[O-]` gave a solubility (kinetic) greater than 45 µg/mL.

`CC(=O)Nc1ccc(NC(=O)Nc2cccc3ccccc23)cc1`: the kinetic solubility stood at 1.1 µg/mL (≈ 3.44 µM).

For `Cc1ccc(C(C)C)c(Oc2cnccn2)c1`, the kinetic solubility came out at 4.3 µg/mL (≈ 18.8 µM).

Turning to `Cc1[nH]c2ccccc2c1C(=O)COc1ccccc1F`, the solubility (kinetic) is 1.6 µg/mL (≈ 5.65 µM).

With `COC(=O)c1ccc(OC(=O)N2CCOCC2)cc1`, the solubility (kinetic) was 33.6 µg/mL (≈ 127 µM).

`CCN(CCS(=O)(=O)c1ccc(Cl)cc1)Cc1nc2ccccc2c(=O)[nH]1` yielded a solubility (kinetic) greater than 60.9 µg/mL.

In turn, `CN1C(=O)N(C)C(=O)C2(Cc3cc([N+](=O)[O-])ccc3N(C)C2)C1=O` displayed a kinetic solubility of 5.3 µg/mL (≈ 15.9 µM).

`CC(C)c1ccc(S(=O)(=O)N2CCN(C(=O)CN3C(=O)c4ccccc4C3=O)CC2)cc1` yielded a solubility (kinetic) of 3.1 µg/mL (≈ 6.81 µM).

On to `Cc1cc(C)c(C)c(S(=O)(=O)N2CCSCC2)c1C`, for which the kinetic solubility was less than 0.6 µg/mL.

In turn, `O=C(O)C(Cc1ccccc1)N=C(NS(=O)(=O)c1ccccc1)c1ccccc1` (configuration not stated) gave a solubility (kinetic) greater than 61.3 µg/mL.

`CCn1c(CNC(=O)C2CCCCC2)cc2cc(C)ccc21`: the solubility (kinetic) is less than 0.3 µg/mL.

`CCOc1ccc(N2C(=O)CC(SCC(=O)O)C2=O)cc1` (configuration not stated) came in with a kinetic solubility greater than 46.4 µg/mL.

`Cc1cc(C)n(NC(=S)NC2CCCCC2)c(=O)c1C#N` displayed a kinetic solubility greater than 45.7 µg/mL.

As for `O=C(COC(=O)/C=C/c1ccc([N+](=O)[O-])cc1)NCc1cccs1`, the kinetic solubility amounted to 4.2 µg/mL (≈ 12.1 µM).

Take `CC(C)N(Cc1nc(-c2ccc3c(c2)OCO3)no1)CC1CCC(=O)N1` (configuration not stated): the solubility (kinetic) worked out at 37.3 µg/mL (≈ 104 µM).

In turn, `CN(C(=O)c1ccc(Br)cc1)C1CCS(=O)(=O)C1` (configuration not stated) showed a kinetic solubility greater than 49.8 µg/mL.

`O=C(Nc1ccncc1)Nc1ccc(Br)cc1Cl` showed a kinetic solubility of 1.9 µg/mL (≈ 5.82 µM).

For the molecule `Cc1ccc(CCC(=O)Nc2ccccc2C(=O)O)o1`, the kinetic solubility is greater than 41 µg/mL.

Regarding `COc1ccc(C2c3ccsc3CCN2C(=O)NC(C)(C)C)cc1` (configuration not stated), the solubility (kinetic) turned out to be 1.5 µg/mL (≈ 4.35 µM).

For the molecule `CC(=O)c1cccc(NC(=O)/C(=C/c2ccncc2)NC(=O)c2ccccc2)c1`, the solubility (kinetic) worked out at 4.2 µg/mL (≈ 10.9 µM).

With `COc1ccccc1NS(=O)(=O)c1ccc(C(=O)NCC(c2cccs2)N2CCOCC2)cc1` (configuration not stated), the solubility (kinetic) is 20 µg/mL (≈ 39.9 µM).

Regarding `COCCNC(=O)c1cc2cc3ccc(OC)cc3nc2o1`, the kinetic solubility is 42.1 µg/mL (≈ 140 µM).

In the case of `Cc1cc(C)c(S(=O)(=O)NC2CC(C)(C)NC(C)(C)C2)cc1C`, the kinetic solubility was determined as 33.5 µg/mL (≈ 99 µM).

In turn, `Cc1cc(C(=O)COC(=O)C23CC4CC(CC(O)(C4)C2)C3)c(C)n1C` came in with a kinetic solubility greater than 51.8 µg/mL.

In turn, `O=C(O)CCC(=O)Nc1ccc(S(=O)(=O)Nc2nccs2)cc1` registered a kinetic solubility of 51.4 µg/mL (≈ 145 µM).

Consider `CN1CC(=O)N2[C@H](c3ccc4c(c3)OCO4)c3[nH]c4ccccc4c3C[C@@H]2C1=O`, for which the kinetic solubility was 3.2 µg/mL (≈ 8.22 µM).

The solubility (kinetic) is the concentration staying in solution when a stock, usually in DMSO, is diluted into the medium.
